Values of other authors, collected in patent US20200323813A1, “TREATMENT OF VIRAL HEMORRHAGIC FEVERS WITH COX-2 SELECTIVE NON-STEROIDAL ANTI-INFLAMMATORY DRUGS” (Tremeau Pharmaceuticals, Inc., priority 2019, published 2020).

What was measured:
[1] = system: platelet aggregation or bleeding time; settings: doses up to 375 mg/day
[2] = system: COX-2 versus COX-1
[3] = oral once daily product
[4] = versus non-selective NSAIDs

CS(=O)(=O)c1ccc(C2=C(c3ccccc3)C(=O)OC2)cc1 [Rofecoxib, 4-[4-(methylsulfonyl)phenyl]-3-phenyl-2(5H)-furanone]
effect on bleeding time [1]: not affect
effect on platelet aggregation [1]: not affect
COX-2 versus COX-1 selectivity [2]: 35 fold
half-live [3]: approximately 17 hours
median onset of action (acute pain settings): 45 min
sustained efficacy (duration) (single dose): 24 h
GI tolerability and safety events [4]: significant improvements
